Measured values as given in BindingDB's records for patent US20260062412 (Chugai Seiyaku Kabushiki Kaisha, 2026).

What follows are molecules tested against T1, Membrane-associated tyrosine- and threonine-specific cdc2-inhibitory kinase (Homo sapiens, UniProt Q99640) (assay: Test for Binding to ATP Binding Site of MYT1).
T1 sequence (Q99640 whole entry): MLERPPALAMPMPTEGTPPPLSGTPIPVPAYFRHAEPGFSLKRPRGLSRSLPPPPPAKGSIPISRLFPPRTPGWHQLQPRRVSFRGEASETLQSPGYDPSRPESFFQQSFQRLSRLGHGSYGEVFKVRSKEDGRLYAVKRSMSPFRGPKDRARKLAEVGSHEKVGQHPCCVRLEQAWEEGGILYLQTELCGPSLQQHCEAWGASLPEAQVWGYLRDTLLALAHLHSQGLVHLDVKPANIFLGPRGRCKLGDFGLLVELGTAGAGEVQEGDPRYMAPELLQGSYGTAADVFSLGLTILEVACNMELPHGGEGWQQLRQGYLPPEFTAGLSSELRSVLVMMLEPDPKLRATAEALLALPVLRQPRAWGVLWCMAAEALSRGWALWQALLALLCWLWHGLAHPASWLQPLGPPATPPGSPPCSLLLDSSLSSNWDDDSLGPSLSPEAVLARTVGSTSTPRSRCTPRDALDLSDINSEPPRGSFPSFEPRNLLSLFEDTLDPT
Protocol: Table 3-1 to 3-5: The binding capacity of each compound to the ATP binding site of MYT1 Kinase protein was evaluated. 5× Kinase Buffer A (manufactured by Thermo Fisher Scientific Inc., PV3189) was diluted to 5 times with Milli-Q water, thereby preparing 1× Kinase Buffer. Using 1× Kinase Buffer, MYT1 protein (manufactured by Carna Biosciences, Inc.) was diluted to a concentration of 0.005 μM and Eu-Anti-GST Antibody was diluted to a concentration of 1 μM. […] To a 96 well-plate, 2.5 μL of a compound diluted with DMSO was added. […] The mixture was well mixed and then allowed to stand at room temperature for 30 minutes. Thereafter, fluorescence wavelengths of 665 nm and 615 nm generated by irradiation with excitation light of 340 nm were detected using Envision (manufactured by PerkinElmer). The proportion of Tracer bound to MYT1 protein was calculated for every condition by dividing the intensity at the fluorescence wavelength of 665 nm by the intensity at the fluorescence wavelength of 615 nm.

Question: Which IC50 does the source give for `CC[C@@H](C)Oc1cc2c(c3cccnc13)NC(=O)C(N)C2c1ccc(F)c2[nH]ncc12` (stereo partly drawn) [US20260062412, Compound C36] here?
Answer: Its IC50 is 4.2 nM.

Question: How did the IC50 turn out when `N#C[C@H]1C[C@@H](Oc2cc3c(-c4cc(F)c(F)c5[nH]ncc45)c(N)c(=O)[nH]c3c3cccnc23)C1` [US20260062412, Compound C212] was run?
Answer: The IC50 was 1.2 nM.

Question: With `Nc1c(-c2cc(F)c(F)c3[nH]ncc23)c2cc(O[C@H]3C[C@@H](F)C3)c3ncccc3c2[nH]c1=O` [US20260062412, Compound C213] as the molecule, how does the IC50 read?
Answer: Its IC50 is 0.83 nM.
